Numbers after ± are expanded uncertainties.
What was measured:
[1] = refractive index (Na D-line) (dimensionless); conditions: 101.33 kPa, Liquid, Standard Abbe refractometry
[2] = for mass density: 101.33 kPa, Liquid, Pycnometric method; for Normal melting temperature: Crystal, visual observation

| refractive index ([1]; 298.15 K) | refractive index ([1]; 303.15 K) | refractive index ([1]; 308.15 K) | refractive index ([1]; 313.15 K) | mass density ([2]; 298.15 K) [kg/m3] | mass density ([2]; 303.15 K) [kg/m3] | mass density ([2]; 308.15 K) [kg/m3] | mass density ([2]; 313.15 K) [kg/m3] | Normal melting temperature [2] [°C] | Structure (SMILES) |
| --- | --- | --- | --- | --- | --- | --- | --- | --- | --- |
| 1.4371 ± 0.0004 | 1.4336 ± 0.0004 | 1.4302 ± 0.0004 | 1.4286 ± 0.0004 | 1437 ± 0.9 | 1433.5 ± 0.9 | 1430.2 ± 0.9 | 1428.5 ± 0.9 | 117.00 ± 2 | Cc1ccc(C(=O)N(O)c2ccccc2)cc1[N+](=O)[O-] [N-hydroxy-4-methyl-3-nitro-N-phenylbenzamide] |
| 1.427 ± 0.0004 | 1.4253 ± 0.0004 | 1.423 ± 0.0004 | 1.421 ± 0.0004 | 945.2 ± 0.9 | 939.7 ± 0.8 | 935.6 ± 0.8 | 930.2 ± 0.9 |  | CN(C)C=O [dimethylformamide] |
| 1.4269 ± 0.0004 | 1.4257 ± 0.0004 | 1.4241 ± 0.0004 | 1.4221 ± 0.0004 | 945.8 ± 0.6 | 940.4 ± 0.6 | 936.3 ± 0.6 | 931.2 ± 0.6 | 121.00 ± 2 | O=C(c1ccccc1)N(O)c1ccccc1 [N-phenylbenzohydroxamic acid] |
|  |  |  |  |  |  |  |  | 168.00 ± 2 | O=C(c1ccc([N+](=O)[O-])cc1)N(O)c1ccccc1 [N-hydroxy-4-nitro-N-phenylbenzamide] |

Reference: the NIST ThermoML archive (doi:10.1016/j.jct.2012.03.020)
